{
  "source": "patent US20230085307A1",
  "about": "“PYRIDAZINONE COMPOUND AND HERBICIDE” (NISSAN CHEMICAL CORPORATION, priority 2019, published 2023)",
  "key": {"[1]": {"system": "late watergrass", "test": "Test Example 1: herbicidal activity, application before weed generation under submerged conditions (Table 16, symbol A)", "format": "in vivo, late watergrass (Echinochloa oryzicola)", "conditions": "amount of applied herbicide 320 g/ha", "how_it_was_run": "(§1)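 Emulsion formulation, water-diluted to set dose, was put onto the flooded surface (4 cm depth, alluvial soil) the same day weeds were sown and 2.5-leaf rice transplanted. After 3 weeks at 25-30 °C under glass, each species was rated 0 (≤5% kill) to 5 (≥90% kill).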"}, "[2]": {"system": "Japanese bulrush", "test": "Test Example 1: herbicidal activity, application before weed generation under submerged conditions (Table 16, symbol B)", "format": "in vivo, Japanese bulrush (Schoenoplectus juncoides)", "conditions": "amount of applied herbicide 320 g/ha", "how_it_was_run": "as §1"}, "[3]": {"system": "oval-leafed pondweed", "test": "Test Example 1: herbicidal activity, application before weed generation under submerged conditions (Table 16, symbol C)", "format": "in vivo, oval-leafed pondweed (Monochoria vaginalis)", "conditions": "amount of applied herbicide 320 g/ha", "how_it_was_run": "as §1"}, "[4]": {"system": "Chinese sprangletop", "test": "Test Example 3: herbicidal effect by foliage application, Wagner pot (Table 18, symbol D)", "format": "in vivo, chinese sprangletop (Leptochloa chinensis)", "conditions": "amount of applied herbicide 320 g/ha", "how_it_was_run": "(§2)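 Plants were sown in alluvial soil held under 0.1–0.5 cm standing water and grown 14 days in a greenhouse at 25–30 °C. An emulsifiable formulation, water-diluted to the set dose, was then sprayed onto the foliage, and effects were scored three weeks later using previously defined criteria.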"}, "[5]": {"system": "rice flat sedge", "test": "Test Example 3: herbicidal effect by foliage application, Wagner pot (Table 18, symbol E)", "format": "in vivo, rice flat sedge (Cyperus iria)", "conditions": "amount of applied herbicide 320 g/ha", "how_it_was_run": "as §2"}, "[6]": {"system": "southern crabgrass", "test": "Test Example 4: herbicidal effect by soil treatment (Table 19, symbol F)", "format": "in vivo, southern crabgrass (Digitaria ciliaris)", "conditions": "amount of applied herbicide 320 g/ha", "how_it_was_run": "(§3)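 Applied as a water-diluted emulsion, the compound was sprayed onto soil covering newly sown seeds. Evaluation came three weeks after application, in a greenhouse held at 25° C. to 30° C.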"}, "[7]": {"system": "green foxtail", "test": "Test Example 4: herbicidal effect by soil treatment (Table 19, symbol G)", "format": "in vivo, green foxtail (Setaria viridis)", "conditions": "amount of applied herbicide 320 g/ha", "how_it_was_run": "as §3"}, "[8]": {"system": "barnyard grass", "test": "Test Example 4: herbicidal effect by soil treatment (Table 19, symbol H)", "format": "in vivo, barnyard grass (Echinochloa crus-galli)", "conditions": "amount of applied herbicide 320 g/ha", "how_it_was_run": "as §3"}, "[9]": {"system": "wild oat", "test": "Test Example 4: herbicidal effect by soil treatment (Table 19, symbol I)", "format": "in vivo, wild oat (Avena fatua)", "conditions": "amount of applied herbicide 320 g/ha", "how_it_was_run": "as §3"}, "[10]": {"system": "blackgrass", "test": "Test Example 4: herbicidal effect by soil treatment (Table 19, symbol J)", "format": "in vivo, blackgrass (Alopecurus myosuroides)", "conditions": "amount of applied herbicide 320 g/ha", "how_it_was_run": "as §3"}, "[11]": {"system": "Italian ryegrass", "test": "Test Example 4: herbicidal effect by soil treatment (Table 19, symbol K)", "format": "in vivo, Italian ryegrass (Lolium multiflorum)", "conditions": "amount of applied herbicide 320 g/ha", "how_it_was_run": "as §3"}, "[12]": {"system": "windgrass", "test": "Test Example 4: herbicidal effect by soil treatment (Table 19, symbol L)", "format": "in vivo, windgrass (Apera spica-venti)", "conditions": "amount of applied herbicide 320 g/ha", "how_it_was_run": "as §3"}, "[13]": {"system": "velvetleaf", "test": "Test Example 4: herbicidal effect by soil treatment (Table 19, symbol M)", "format": "in vivo, velvetleaf (Abutilon theophrasti)", "conditions": "amount of applied herbicide 320 g/ha", "how_it_was_run": "as §3"}, "[14]": {"system": "redroot pigweed", "test": "Test Example 4: herbicidal effect by soil treatment (Table 19, symbol N)", "format": "in vivo, redroot pigweed (Amaranthus retroflexus)", "conditions": "amount of applied herbicide 320 g/ha", "how_it_was_run": "as §3"}, "[15]": {"system": "lambsquarters", "test": "Test Example 4: herbicidal effect by soil treatment (Table 19, symbol O)", "format": "in vivo, lambsquarters (Chenopodium album)", "conditions": "amount of applied herbicide 320 g/ha", "how_it_was_run": "as §3"}, "[16]": {"system": "chickweed", "test": "Test Example 4: herbicidal effect by soil treatment (Table 19, symbol P)", "format": "in vivo, common chickweed (Stellaria media)", "conditions": "amount of applied herbicide 320 g/ha", "how_it_was_run": "as §3"}, "[17]": {"system": "false cleavers", "test": "Test Example 4: herbicidal effect by soil treatment (Table 19, symbol Q)", "format": "in vivo, false cleavers (Galium spurium)", "conditions": "amount of applied herbicide 320 g/ha", "how_it_was_run": "as §3"}, "[18]": {"system": "persian speedwell", "test": "Test Example 4: herbicidal effect by soil treatment (Table 19, symbol R)", "format": "in vivo, Persian speedwell (Veronica persica)", "conditions": "amount of applied herbicide 320 g/ha", "how_it_was_run": "as §3"}, "[19]": {"system": "southern crabgrass", "test": "Test Example 5: herbicidal effect by foliage application, plastic box (Table 20, symbol F)", "format": "in vivo, southern crabgrass (Digitaria ciliaris)", "conditions": "foliage application, AAH 320 g/ha, evaluated three weeks after application", "how_it_was_run": "(§4)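 Sow seeds spot-wise in sterilized diluvial soil; cover with ~1.5 cm soil. Grow 14 days in greenhouse, 25° C. to 30° C. Spray foliage with emulsion diluted to predetermined amount. Rate effect after 3 weeks.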"}, "[20]": {"system": "green foxtail", "test": "Test Example 5: herbicidal effect by foliage application, plastic box (Table 20, symbol G)", "format": "in vivo, green foxtail (Setaria viridis)", "conditions": "foliage application, AAH 320 g/ha, evaluated three weeks after application", "how_it_was_run": "as §4"}, "[21]": {"system": "barnyard grass", "test": "Test Example 5: herbicidal effect by foliage application, plastic box (Table 20, symbol H)", "format": "in vivo, barnyard grass (Echinochloa crus-galli)", "conditions": "foliage application, AAH 320 g/ha, evaluated three weeks after application", "how_it_was_run": "as §4"}, "[22]": {"system": "wild oat", "test": "Test Example 5: herbicidal effect by foliage application, plastic box (Table 20, symbol I)", "format": "in vivo, wild oat (Avena fatua)", "conditions": "foliage application, AAH 320 g/ha, evaluated three weeks after application", "how_it_was_run": "as §4"}, "[23]": {"system": "blackgrass", "test": "Test Example 5: herbicidal effect by foliage application, plastic box (Table 20, symbol J)", "format": "in vivo, blackgrass (Alopecurus myosuroides)", "conditions": "foliage application, AAH 320 g/ha, evaluated three weeks after application", "how_it_was_run": "as §4"}, "[24]": {"system": "Italian ryegrass", "test": "Test Example 5: herbicidal effect by foliage application, plastic box (Table 20, symbol K)", "format": "in vivo, Italian ryegrass (Lolium multiflorum)", "conditions": "foliage application, AAH 320 g/ha, evaluated three weeks after application", "how_it_was_run": "as §4"}, "[25]": {"system": "windgrass", "test": "Test Example 5: herbicidal effect by foliage application, plastic box (Table 20, symbol L)", "format": "in vivo, windgrass (Apera spica-venti)", "conditions": "foliage application, AAH 320 g/ha, evaluated three weeks after application", "how_it_was_run": "as §4"}, "[26]": {"system": "velvetleaf", "test": "Test Example 5: herbicidal effect by foliage application, plastic box (Table 20, symbol M)", "format": "in vivo, velvetleaf (Abutilon theophrasti)", "conditions": "foliage application, AAH 320 g/ha, evaluated three weeks after application", "how_it_was_run": "as §4"}, "[27]": {"system": "redroot pigweed", "test": "Test Example 5: herbicidal effect by foliage application, plastic box (Table 20, symbol N)", "format": "in vivo, redroot pigweed (Amaranthus retroflexus)", "conditions": "foliage application, AAH 320 g/ha, evaluated three weeks after application", "how_it_was_run": "as §4"}, "[28]": {"system": "lambsquarters", "test": "Test Example 5: herbicidal effect by foliage application, plastic box (Table 20, symbol O)", "format": "in vivo, lambsquarters (Chenopodium album)", "conditions": "foliage application, AAH 320 g/ha, evaluated three weeks after application", "how_it_was_run": "as §4"}, "[29]": {"system": "chickweed", "test": "Test Example 5: herbicidal effect by foliage application, plastic box (Table 20, symbol P)", "format": "in vivo, common chickweed (Stellaria media)", "conditions": "foliage application, AAH 320 g/ha, evaluated three weeks after application", "how_it_was_run": "as §4"}, "[30]": {"system": "persian speedwell", "test": "Test Example 5: herbicidal effect by foliage application, plastic box (Table 20, symbol R)", "format": "in vivo, Persian speedwell (Veronica persica)", "conditions": "foliage application, AAH 320 g/ha, evaluated three weeks after application", "how_it_was_run": "as §4"}},
  "data": [
    {"smiles": "CCn1nc(C)c(O)c(-c2c(-c3ccc(F)cc3)sc3ccc(F)cc23)c1=O", "note": "[2-398]", "values": [
      {"measurement": "Herbicidal effect, A: late watergrass", "setting": "[1]", "value": "3 (Herbicidal rate of 40% or more and less than 70%)"},
      {"measurement": "Herbicidal effect, B: Japanese bulrush", "setting": "[2]", "value": "3 (Herbicidal rate of 40% or more and less than 70%)"},
      {"measurement": "Herbicidal effect, C: oval-leafed pondweed", "setting": "[3]", "value": "0 (Herbicidal rate of 5% or less (almost no effect))"},
      {"measurement": "herbicidal effect on D: Chinese sprangletop", "setting": "[4]", "value": "0 (Herbicidal rate of 5% or less (almost no effect))"},
      {"measurement": "herbicidal effect on E: rice flat sedge", "setting": "[5]", "value": "3 (Herbicidal rate of 40% or more and less than 70%)"},
      {"measurement": "herbicidal effect, F: southern crabgrass", "setting": "[6]", "value": "3 (Herbicidal rate of 40% or more and less than 70%)"},
      {"measurement": "herbicidal effect, G: green foxtail", "setting": "[7]", "value": "3 (Herbicidal rate of 40% or more and less than 70%)"},
      {"measurement": "herbicidal effect, H: barnyard grass", "setting": "[8]", "value": "2 (Herbicidal rate of 20% or more and less than 40%)"},
      {"measurement": "herbicidal effect, I: wild oat", "setting": "[9]", "value": "0 (Herbicidal rate of 5% or less (almost no effect))"},
      {"measurement": "herbicidal effect, J: blackgrass", "setting": "[10]", "value": "0 (Herbicidal rate of 5% or less (almost no effect))"},
      {"measurement": "herbicidal effect, K: Italian ryegrass", "setting": "[11]", "value": "4 (Herbicidal rate of 70% or more and less than 90%)"},
      {"measurement": "herbicidal effect, L: windgrass", "setting": "[12]", "value": "0 (Herbicidal rate of 5% or less (almost no effect))"},
      {"measurement": "herbicidal effect, M: velvetleaf", "setting": "[13]", "value": "1 (Herbicidal rate of 5% or more and less than 20%)"},
      {"measurement": "herbicidal effect, N: redroot pigweed", "setting": "[14]", "value": "4 (Herbicidal rate of 70% or more and less than 90%)"},
      {"measurement": "herbicidal effect, O: lambsquarters", "setting": "[15]", "value": "3 (Herbicidal rate of 40% or more and less than 70%)"},
      {"measurement": "herbicidal effect, P: chickweed", "setting": "[16]", "value": "0 (Herbicidal rate of 5% or less (almost no effect))"},
      {"measurement": "herbicidal effect, Q: false cleavers", "setting": "[17]", "value": "0 (Herbicidal rate of 5% or less (almost no effect))"},
      {"measurement": "herbicidal effect, R: persian speedwell", "setting": "[18]", "value": "1 (Herbicidal rate of 5% or more and less than 20%)"},
      {"measurement": "F: southern crabgrass, herbicidal effect (criteria 0-5)", "setting": "[19]", "value": "4 (Herbicidal rate of 70% or more and less than 90%)"},
      {"measurement": "G: green foxtail, herbicidal effect (criteria 0-5)", "setting": "[20]", "value": "4 (Herbicidal rate of 70% or more and less than 90%)"},
      {"measurement": "H: barnyard grass, herbicidal effect (criteria 0-5)", "setting": "[21]", "value": "5 (Herbicidal rate of 90% or more (almost completely withered))"},
      {"measurement": "I: wild oat, herbicidal effect (criteria 0-5)", "setting": "[22]", "value": "0 (Herbicidal rate of 5% or less (almost no effect))"},
      {"measurement": "J: blackgrass, herbicidal effect (criteria 0-5)", "setting": "[23]", "value": "0 (Herbicidal rate of 5% or less (almost no effect))"},
      {"measurement": "K: Italian ryegrass, herbicidal effect (criteria 0-5)", "setting": "[24]", "value": "4 (Herbicidal rate of 70% or more and less than 90%)"},
      {"measurement": "L: windgrass, herbicidal effect (criteria 0-5)", "setting": "[25]", "value": "0 (Herbicidal rate of 5% or less (almost no effect))"},
      {"measurement": "M: velvetleaf, herbicidal effect (criteria 0-5)", "setting": "[26]", "value": "5 (Herbicidal rate of 90% or more (almost completely withered))"},
      {"measurement": "N: redroot pigweed, herbicidal effect (criteria 0-5)", "setting": "[27]", "value": "5 (Herbicidal rate of 90% or more (almost completely withered))"},
      {"measurement": "O: lambsquarters, herbicidal effect (criteria 0-5)", "setting": "[28]", "value": "4 (Herbicidal rate of 70% or more and less than 90%)"},
      {"measurement": "P: chickweed, herbicidal effect (criteria 0-5)", "setting": "[29]", "value": "5 (Herbicidal rate of 90% or more (almost completely withered))"},
      {"measurement": "R: persian speedwell, herbicidal effect (criteria 0-5)", "setting": "[30]", "value": "5 (Herbicidal rate of 90% or more (almost completely withered))"}
    ]}
  ]
}
